Common to all, as to type: cell-based
The test system of test [1] is GR. Nature of the test: qPCR of endogenous GR target genes, cell line not distinguished (FIG. 4B, 5D). Conditions: with dex, 24 hr. The source says: Quantitative PCR. Total RNA isolation used Trizol and Pure Link (Invitrogen). […] Rpl19 expression was used for data normalization.
In test [2] the target is T1, GR (Homo sapiens, UniProt P04150).
T1 sequence (P04150 1-777): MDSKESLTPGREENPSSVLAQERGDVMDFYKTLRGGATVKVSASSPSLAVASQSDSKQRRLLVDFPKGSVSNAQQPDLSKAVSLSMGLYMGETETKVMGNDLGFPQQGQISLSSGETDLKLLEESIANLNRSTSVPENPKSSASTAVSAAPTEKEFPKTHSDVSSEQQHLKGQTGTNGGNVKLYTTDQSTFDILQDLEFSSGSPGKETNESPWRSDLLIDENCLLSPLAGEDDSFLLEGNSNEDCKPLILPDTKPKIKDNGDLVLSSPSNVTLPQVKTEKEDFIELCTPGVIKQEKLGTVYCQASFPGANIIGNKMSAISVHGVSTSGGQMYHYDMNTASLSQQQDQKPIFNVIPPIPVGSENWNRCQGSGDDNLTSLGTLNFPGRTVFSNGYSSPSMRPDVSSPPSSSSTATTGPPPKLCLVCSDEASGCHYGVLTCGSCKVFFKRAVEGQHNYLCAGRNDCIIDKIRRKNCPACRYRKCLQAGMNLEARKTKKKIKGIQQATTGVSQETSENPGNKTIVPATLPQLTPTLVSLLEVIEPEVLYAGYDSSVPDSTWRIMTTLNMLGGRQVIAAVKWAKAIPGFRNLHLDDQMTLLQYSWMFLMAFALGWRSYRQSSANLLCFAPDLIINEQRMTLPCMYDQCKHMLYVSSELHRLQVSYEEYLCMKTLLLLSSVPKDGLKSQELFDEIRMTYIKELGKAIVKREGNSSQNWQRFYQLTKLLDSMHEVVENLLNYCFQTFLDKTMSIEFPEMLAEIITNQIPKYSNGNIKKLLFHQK
Nature of the test: Multi-promoter fluorescent protein reporter compound screen for GR modulators. Also noted: endogenous in cells; host or cells: A549. The note with it: A549 cells, library compounds 2.5 μM with dex 100 nM; reporter fluorescence relative to plate mean. How it is done: Compound Screen. A549 cells were transfected with an equal mixture of pENaC-CFP, pGILZ-YFP, pFKBP5-OFP (1.3 μg each), or with pSV40-ChFP (4 μg). The next day, cells were mixed (˜1.8×10^4 of the cells triple-transfected with pENaC-CFP, pGILZ-YFP, pFKBP5-OFP; ˜2×10^3 cells transfected with pSV40-ChFP) and replated into 96 well plates (Costar 3603). 2 hours later, library compounds (2.5 μM) and dex (100 nM) were added using a Biomek robot. The following day, cells were fixed for 4 minutes in 4% paraformaldehyde and fluorescence was measured sequentially for each reporter using a Safire plate reader (Tecan). Hits were scored based on the mean and standard deviation (s.d.) of the experimental wells on each plate. Criteria for a hit were if one reporter was more than 1.5×s.d. from the mean in duplicate, or if two reporters were more than 0.8×s.d. from the mean in duplicate. If the control SV40-ChFP was more than 2×s.d. from the mean in a single plate, or 0.8×s.d. in duplicate plates (in the same direction as the GR reporters), the well was not scored as a hit.
We used the system of Example 1 to screen a library of 1040 natural products and FDA-approved drugs for modulators of GR signaling (Abbott, A. Nature 417:109). The screen design is outlined in FIG. 2. The pENaC-CFP, pGILZ-YFP, and pFKBP5-OFP reporters indicated GR signaling, while pSV40-mCh, an internal control, excluded non-specific transcription inhibitors and toxins. We screened the library in duplicate in the presence of saturating dex (100 nM). Z′, a function that reflects the ability to discriminate between control and experimental wells (Zhang, J. H. et al., J Biomol Screen 4:67-73 (1999)), was determined for dex treatment of each GR reporter. The Z′ values were: Z′(ENAC-CFP)=0.68; Z′(GILZ-YFP)=0.64; and Z′(FKBP5-OFP)=0.66. These indicate that the screen should efficiently identify compounds that increase or decrease fluorescence from any of the three experimental promoters (Zhang, J. H. et al., J Biomol Screen 4:67-73 (1999)).

In test [3] the target is T1, GR. Kind of test: Luciferase assays, GR-responsive reporters, A549 cells. More on the design: endogenous in cells; host or cells: A549. The note with it: for Dose dependent: whether the drug acted dose-dependently on GR-luciferase reporters; for GR activity (GR-mediated induction of pENaC-luc reporter): pENaC-luc and pSV40-rl. The method, then:
(§1) Transfections. The day prior to transfection, ˜3×10^5 cells were plated in 6-well dishes. Transfections used Lipofectamine 2000 (Invitrogen). 4 μg of total plasmid DNA were used for each transfection. For A549 cells, 500 μL of DNA/lipofectamine complex was added to 1.5 ml of DMEM with pen/strep and 5% FBS. For U2OS cells, 500 μl of DNA/lipofectamine complex was added to 1.5 ml of Optimem. After 3-4 hours of incubation, media was replaced with standard growth media.
(§2) Luciferase assays. Luciferase assays used the Promega Dual-Luciferase Reporter system. Briefly, cells were transfected with various firefly luciferase plasmids and pSV40-RL at a ratio of 10:1. The day after transfection, cells were split into 96-well dishes and treated with dex and various drugs. Cells were harvested in 50 μl 1XPLB (Promega) 12-18 hr after drug treatment and luciferase assays were performed on 10 μl of lysate. Luminscence was detected using an Ultra Evolution plate reader (Tecan).
(Reporter assays use an easily measured gene product as a stand-in for the process of interest.)

In test [4] the target is T2, GR (Rattus norvegicus, UniProt P06536).
T2 construct: expressed in transfected cells; host or cells: U2OS-GR
T2 sequence (P06536 1-795): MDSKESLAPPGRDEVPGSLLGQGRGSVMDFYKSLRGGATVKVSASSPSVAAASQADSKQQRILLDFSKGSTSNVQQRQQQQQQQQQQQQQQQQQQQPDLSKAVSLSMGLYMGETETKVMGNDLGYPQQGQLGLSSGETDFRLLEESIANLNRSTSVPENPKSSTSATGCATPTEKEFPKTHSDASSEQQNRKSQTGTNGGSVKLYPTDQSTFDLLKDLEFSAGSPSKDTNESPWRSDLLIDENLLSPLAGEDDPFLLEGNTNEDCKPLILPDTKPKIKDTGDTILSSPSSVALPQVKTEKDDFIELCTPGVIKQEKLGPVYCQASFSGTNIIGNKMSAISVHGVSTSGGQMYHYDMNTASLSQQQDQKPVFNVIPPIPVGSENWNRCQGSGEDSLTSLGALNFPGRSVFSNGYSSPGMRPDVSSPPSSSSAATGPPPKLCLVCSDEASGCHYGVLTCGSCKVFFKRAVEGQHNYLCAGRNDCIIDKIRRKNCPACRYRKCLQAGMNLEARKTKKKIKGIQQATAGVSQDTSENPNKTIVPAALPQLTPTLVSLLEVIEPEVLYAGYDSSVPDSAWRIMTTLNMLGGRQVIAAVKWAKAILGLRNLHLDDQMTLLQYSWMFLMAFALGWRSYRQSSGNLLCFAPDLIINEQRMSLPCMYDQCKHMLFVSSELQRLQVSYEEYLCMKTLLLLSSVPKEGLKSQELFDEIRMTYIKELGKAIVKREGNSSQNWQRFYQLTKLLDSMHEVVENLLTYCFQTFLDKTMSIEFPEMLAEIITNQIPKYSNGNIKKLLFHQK
Kind of test: Luciferase assays, GR-responsive reporters, U2OS-GR cells. Conditions: pENaC-luc and pSV40-rl, with dex. How it is done: as §1, §2

`Cc1cc(C2CCCCC2)n(O)c(=O)c1` [Ciclopirox olamine]: in the test with GR [1], the “expression of endogenous GR target genes (qPCR), overall” value (from here on “expression”) is recorded as “general GR antagonist”. Further, at GR [2], the ENaC-CFP entry is on record as “↓^c (0.8 to 2 s.d. less than the mean (↓))”, the FKBP5-OFP entry is recorded as “no effect” and the GILZ-YFP entry was “↓ (0.8 to 2 s.d. less than the mean (↓))”. Moreover, the Dose dependent result on GR [3] is “dose dependent effects and yes”.

In the case of `COc1cccc2c1C(=O)c1c(O)c3c(c(O)c1C2=O)C[C@@](O)(C(=O)CO)C[C@@H]3O[C@H]1C[C@H](N)[C@H](O)[C@H](C)O1` [Doxorubicin], the “GR activity (GR-mediated induction of pENaC-luc reporter)” value at GR [3] (A549 cells, with dex) is given as “inhibited GR”.

Regarding `O=c1oc2c(O)c(O)cc3c(=O)oc4c(O)c(O)cc1c4c23` [Ellagic Acid], at GR [2], the ENaC-CFP entry was “No effect”, the FKBP5-OFP entry is “↓ (0.8 to 2 s.d. less than the mean (↓))” and the GILZ-YFP entry is reported as “↓ (0.8 to 2 s.d. less than the mean (↓))”. In addition, the Dose dependent entry at GR [3] was “no”.

Consider `CCCCCC(=O)O[C@]1(C(C)=O)CC[C@H]2[C@@H]3CCC4=CC(=O)CC[C@]4(C)[C@H]3CC[C@@]21C` [Hpg. caproate, Hydroxyprogesterone caproate], for which, in the test on GR [1], the “expression” value is given as “selectively modulated endogenous GR target genes”; the “induction of endogenous ENaC (qPCR)” value was “no impact”; the “induction of endogenous FKBP5 (qPCR)” value is “reduced induction”; the “induction of endogenous GILZ (qPCR)” value was “reduced induction”. At GR [2], the ENaC-CFP entry is “No effect”, the FKBP5-OFP entry is “↓↓↓ (more than 2 standard deviations (s.d.) less than the mean (↓↓↓))” and the GILZ-YFP entry was “↓↓↓ (more than 2 standard deviations (s.d.) less than the mean (↓↓↓))”. On GR [3], the Dose dependent result is “yes”. For the same compound, on GR [3] (listed as Hpg), the Dose dependent result is “dose dependent effects”.

As for `C[N+]1(C)CCCC(OC(=O)C(O)(c2ccccc2)c2ccccc2)C1` (centres unmarked) [Mepenzolate], on GR [2], the ENaC-CFP result is given as “No effect”, the FKBP5-OFP result is “↓ (0.8 to 2 s.d. less than the mean (↓))” and the GILZ-YFP entry is “↓ (0.8 to 2 s.d. less than the mean (↓))”. In addition, the Dose dependent result at GR [3] is reported as “no”.

As for `O=C1c2c(O)ccc(O)c2C(=O)c2c(NCCNCCO)ccc(NCCNCCO)c21` [Mitoxantrone], at GR [4], the “GR activity (luciferase reporter)” value is listed as “inhibited GR”. For the same compound, at GR [2], the ENaC-CFP entry was “↓↓↓ (more than 2 standard deviations (s.d.) less than the mean (↓↓↓))”, the FKBP5-OFP entry is “↓↓↓ (more than 2 standard deviations (s.d.) less than the mean (↓↓↓))” and the GILZ-YFP result is given as “↓↓↓ (more than 2 standard deviations (s.d.) less than the mean (↓↓↓))”. At GR [3] (A549 cells, with dex), the “GR activity (GR-mediated induction of pENaC-luc reporter)” value was “antagonists of GR”. The Dose dependent result at GR [3] is “yes”.

Take `O=C1C=CC(=C(c2ccccc2)c2ccc(O)cc2)C=C1` [NSC55861]: the “GR activity (GR-mediated induction of pENaC-luc reporter)” value at GR [3] (A549 cells, with dex) is recorded as “dose dependently reduced GR activity”.

Turning to `O=C(/C=C/c1ccccc1)/C=C/c1ccccc1O` [NSC636788], at GR [3] (A549 cells, with dex), the “GR activity (GR-mediated induction of pENaC-luc reporter)” value is listed as “dose dependently reduced GR activity”.

With `COC(=O)[C@H]1[C@H]2C[C@@H]3c4[nH]c5cc(OC)ccc5c4CCN3C[C@H]2C[C@@H](OC(=O)c2cc(OC)c(OC)c(OC)c2)[C@@H]1OC` [Reserpine], at GR [2], the ENaC-CFP entry is on record as “↑ (0.8 to 2 s.d. greater than the mean (↑))”, the FKBP5-OFP entry is reported as “↑ (0.8 to 2 s.d. greater than the mean (↑))” and the GILZ-YFP entry was “↑ (0.8 to 2 s.d. greater than the mean (↑))”. The Dose dependent entry on GR [3] is on record as “no”.

On to `O=C1C=CC(=C(c2ccc(O)cc2)c2ccc(O)cc2)C=C1` [Rosolic Acid], for which, in the test on GR [1], the “expression” value was “selectively modulated endogenous GR target genes”; the “induction of endogenous ENaC (qPCR)” value was “inhibited”; the “induction of endogenous FKBP5 (qPCR)” value is given as “inhibited”; the “induction of endogenous GILZ (qPCR)” value was “failed to inhibit”. In addition, on GR [2], the ENaC-CFP entry is recorded as “↓ (0.8 to 2 s.d. less than the mean (↓))”, the FKBP5-OFP result is on record as “↓ (0.8 to 2 s.d. less than the mean (↓))” and the GILZ-YFP entry was “No effect”. In addition, the Dose dependent result at GR [3] is “yes”. Further, the Dose dependent entry at GR [3] (listed as rosolic acid) is reported as “dose dependent effects”.

Regarding `CS(=O)(=O)c1ccc([C@@H](O)[C@@H](CO)NC(=O)C(Cl)Cl)cc1` [Thiamphenicol], at GR [2], the ENaC-CFP result is reported as “No effect”, the FKBP5-OFP result was “↑↑↑^e (more than 2 s.d. greater than the mean (↑↑↑))” and the GILZ-YFP result is “No effect”. Moreover, on GR [3], the Dose dependent result was “no”.

As to `COc1cccc2c1C(=O)c1c(O)c3c(c(O)c1C2=O)C[C@@](O)(C(C)=O)C[C@@H]3O[C@H]1C[C@H](N)[C@H](O)[C@H](C)O1` [daunorubicin], the “GR activity (GR-mediated induction of pENaC-luc reporter)” value at GR [3] (A549 cells, with dex) is “inhibited GR”.

As for a amanitin, the “effect on GR-dependent reporter pENaC-luc compared with GR-independent constitutive reporter pSV40-rl” value on GR [3] (A549 cells, with dex) is “reduced the activity of both reporters to similar extents”.

The values are drawn from patent publication US8940705B2, “Method of treating disease and selectively modulating transcriptional regulation by a glucocorticoid receptor by administering aclacinomycin and dexamethasone” (The Regents of the University of California, priority 2009, dated 2015).
